According to paper PMC6131718 (Journal of medicinal chemistry, 2018):
Values after ≈ are worked out from the molar mass of the structure shown. Like-named read-outs stand apart in the source and are kept apart here. Blank lines part the entries; values can stand above or below the compound they belong to.

Assays:
[1] = test system: KPC-2 (donor) and TEM-1 (recipient); test: Acyl-transfer ESI-MS, KPC-2 donor to TEM-1 recipient; assay type: biochemical; conditions: equimolar KPC-2:DBO preincubated 1 min, then equimolar TEM-1
OXA-23 = OXA-23 (Acinetobacter baumannii, UniProt Q9L4P2); test: Steady-state inhibitor kinetics; assay type: biochemical, A. baumannii
ADC-7 = ADC-7 (Acinetobacter baumannii, UniProt Q6DRA1); test: Steady-state inhibitor kinetics; assay type: biochemical; conditions: for lower Ki app values compared to those of avibactam and relebactam: ADC-7
OXA-24/40 = OXA-24/40 (Acinetobacter baumannii, UniProt Q8RLA6); test: biochemical; design: species or system A. baumannii
[2] = test system: Enterobacteriaceae that expressed blaOXA-48 or blaOXA-48 mutants; assay type: cell-based; conditions: for MIC: Escherichia coli, E. coli Jefferson 17,75 OXA-48, agent alone
PDC-3 = PDC-3 (Pseudomonas aeruginosa, UniProt P24735, T105A); assay type: biochemical
A. baumannii SL04 = test: MIC against clinical isolate A. baumannii SL04; assay type: cell-based
KPC-2 [3] = molecular target: T1, KPC-2 (Klebsiella pneumoniae, UniProt Q9F663); test: biochemical
[4] = test system: TEM-1 (donor) and CTX-M-15 (recipient); conditions: cited from earlier work
A. baumannii SL46 = test: MIC against A. baumannii SL46; assay type: cell-based; conditions: Acinetobacter baumannii
[5] = test system: Escherichia coli DH10B (control); test: MIC, broth microdilution, Escherichia coli DH10B; assay type: cell-based
[6] = test system: E. coli DH10B expressing a single β-lactamase; assay type: cell-based; conditions: Escherichia coli, agent alone
A. baumannii NCTC 13303 = test: MIC against A. baumannii NCTC 13303; assay type: cell-based
KPC-2 [7] = molecular target: T1, KPC-2; conditions: at 15 min; cited from earlier work
A. baumannii AADC = test: MIC, broth microdilution, A. baumannii ΔblaADC parent strain; assay type: cell-based; conditions: Acinetobacter baumannii
[8] = test system: A. baumannii ΔblaADC with pWH1266 blaOXA-24/40; assay type: cell-based; conditions: Acinetobacter baumannii, β-lactam alone; A. baumannii ΔblaADC pWH1266 blaOXA-24
[9] = test system: E. coli DH10B with pBR322-catI-blaKPC-2; test: MIC, broth microdilution, isogenic E. coli DH10B with pBR322-catI-blaKPC-2; assay type: cell-based; conditions: Escherichia coli, β-lactam alone; E. coli DH10B pBR322-catI-blaKPC-2
[10] = test system: A. baumannii ΔblaADC with pWH1266 blaOXA-23; test: MIC, broth microdilution, isogenic A. baumannii ΔblaADC with pWH1266 blaOXA-23; assay type: cell-based; conditions: Acinetobacter baumannii, β-lactam alone; A. baumannii ΔblaADC pWH1266 blaOXA-23
A. baumannii NCTC 13301 = test: MIC against A. baumannii NCTC 13301; assay type: cell-based
CMY-2 = conditions: cited from earlier work
[11] = test system: A. baumannii strains (NCTC 13301, NCTC 13303, SL46); test: Murine peritonitis model, summary over the three A. baumannii strains; assay type: in vivo; conditions: supra-therapeutic doses, 6.25 mg/kg administered as two doses
[12] = E. coli DH10B pBC SIC (−) KPC-2
[13] = E. coli DHIOB pBC SIC (−) PDC-3
[14] = Acinetobacter baumannii, NCTC13303
[15] = Acinetobacter baumannii, NCTC13301

Compound: O=C(NNC(=O)[C@@H]1CC[C@@H]2CN1C(=O)N2OS(=O)(=O)O)[C@@H]1CCNC1 [Compound 1, (2S,5R)-6-Sulfooxy-7-oxo-2-[((3R)-pyrrolidine-3-carbonyl)hydrazinocarbonyl]-1,6-diazabicyclo[3.2.1]octane]
time required for transfer from KPC-2 to TEM-1 [1]: 5 min | Ki (OXA-23): > 100 µM | lower Ki app values compared to those of avibactam and relebactam (ADC-7): 3–8 fold | Ki (OXA-24/40): > 100 µM | MIC [2]: > 16 µg/mL | lower Ki app values compared to those of avibactam and relebactam (PDC-3): 18–25 fold

Compound: O=C(NNC(=O)[C@@H]1CC[C@@H]2CN1C(=O)N2OS(=O)(=O)O)[C@@H]1CCCNC1 [Compound 2, (2S,5R)-6-Sulfooxy-7-oxo-2-[((3R)-piperidine-3-carbonyl)hydrazinocarbonyl]-1,6-diazabicyclo[3.2.1]octane]
time required for transfer from KPC-2 to TEM-1 [1]: 5 min | Ki (OXA-23): > 100 µM | lower Ki app values compared to those of avibactam and relebactam (ADC-7): 3–8 fold | Ki (OXA-24/40): > 100 µM | MIC (A. baumannii SL04; Acinetobacter baumannii, SL04): ≥ 512 µg/mL | MIC [2]: > 16 µg/mL | lower Ki app values compared to those of avibactam and relebactam (PDC-3): 18–25 fold

Compound: N#C[C@@H]1CC[C@@H]2CN1C(=O)N2OS(=O)(=O)[O-].[Na+] [Compound 3, (2S,5R)-1,6-Diazabicyclo[3.2.1]octane-2-carbonitrile-7-oxo-6-(sulfooxy)-monosodium Salt]
time for transfer from KPC-2 to TEM-1 [1]: ≤ 15 s | Kd (OXA-23): 0.029 ± 0.004 µM | Ki (OXA-23): 8 ± 1 µM | Kd (ADC-7): 0.053 ± 0.007 µM | Ki (ADC-7): 8 ± 0.8 µM | Kd (OXA-24/40): 0.042 ± 0.006 µM | Ki (OXA-24/40): 5 ± 0.5 µM | Kd (KPC-2 [3]): 0.0019 ± 0.0002 µM | Ki (KPC-2 [3]): 0.32 ± 0.03 µM

Compound: NC(=O)[C@@H]1CC[C@@H]2CN1C(=O)N2OS(=O)(=O)O [avibactam]
time of maximum transfer from TEM-1 to CTX-M-15 [4]: 30 min

Compound: CO/N=C(\C(=O)N[C@@H]1C(=O)N2C(C(=O)[O-])=C(C[N+]3(C)CCCC3)CS[C@H]12)c1csc(N)n1 [cefepime]
MIC (A. baumannii SL46): > 512 µg/mL | MIC [5]: < 0.12 µg/mL | MIC [6, 12]: 0.5 µg/mL (≈ 1.04 µM) | MIC ([6]; E. coli DHIOB pBC SIC (−) OXA-48): < 0.12 µg/mL | MIC [6, 13]: < 0.12 µg/mL | MIC (A. baumannii NCTC 13303; [14]): 64 µg/mL (≈ 133 µM)

Compound: O=C(O)[C@H]1/C(=C/CO)O[C@@H]2CC(=O)N21 [clavulanic acid]
turnover number (tn) (KPC-2 [7]): 2,500

Compound: C[C@@H](O)[C@H]1C(=O)N2C(C(=O)O)=C(S[C@@H]3CN[C@H](C(=O)N(C)C)C3)[C@H](C)[C@H]12 [meropenem]
MIC (A. baumannii AADC): < 0.12 µg/mL | MIC [8]: ≥ 8 µg/mL | MIC [5]: < 0.12 µg/mL | MIC [9]: ≥ 8 µg/mL | MIC [6, 12]: < 0.12 µg/mL | MIC [6, 13]: < 0.12 µg/mL | MIC [10]: ≥ 8 µg/mL | MIC (A. baumannii NCTC 13301; [15]): 32 µg/mL (≈ 83.4 µM) | MIC (A. baumannii NCTC 13303; [14]): 256 µg/mL (≈ 668 µM)

Compound: O.O=C(NC1CCNCC1)[C@@H]1CC[C@@H]2CN1C(=O)N2OS(=O)(=O)O [relebactam]
Ki (OXA-23): > 100 µM | Ki (OXA-24/40): > 100 µM | restoration of susceptibility to cefepime and meropenem ([2]; clinical isolates of Enterobacteriaceae expressing blaOXA-48 or mutants): less effective

Compound: C[C@]1(Cn2ccnn2)[C@H](C(=O)O)N2C(=O)C[C@H]2S1(=O)=O [tazobactam]
Ki (CMY-2): 40 µM

MIC (A. baumannii NCTC 13301; [15]): 1 µg/mL (≈ 1.71 µM) | MIC (A. baumannii NCTC 13303; [14]): 1 µg/mL (≈ 1.71 µM)
Compound: CN(C)c1cc(NC(=O)CNC(C)(C)C)c(O)c2c1C[C@H]1C[C@H]3[C@H](N(C)C)C(O)=C(C(N)=O)C(=O)[C@@]3(O)C(O)=C1C2=O [tigecycline]
protection of infected mice [11]: failed to protect infected mice

Compound: colistin
MIC (A. baumannii SL04; A. baumannii SL04 carrying blaOXA-23 and blaOXA-51): 2 µg/mL | MIC (A. baumannii NCTC 13301; A. baumannii NCTC 13301, 3 at a fixed 8 μg/mL, cefepime-2 at 1:1 ratio): 1 µg/mL | MIC (A. baumannii NCTC 13303; A. baumannii NCTC 13303, 3 at a fixed 8 μg/mL, cefepime-2 at 1:1 ratio): 0.5 µg/mL
